Like-named read-outs stand apart in the source and are kept apart here.
Experiments:
[1] = tested on: TLR3, MHC Class I, PKR, IP-10 mRNA in FRTL-5 cells; details: FRTL-5, 100 U/ml IFN
[2] = tested on: NF-κB; experiment: NF-κB Luc reporter gene in FRTL-5 thyrocytes; assay type: cell-based, rat; details: FRTL-5, pNF-κB Luc, 100 μg/ml, 6 h
Experimental: (§1) Poly (I:C) (the dsRNA ligand commonly used as a test compound) activates the TLR3 mediated NF-κ β/Map kinase signal pathway in FRTL-5 thyrocytes. FRTL-5 cells were transiently transfected with 100 ng of luciferase reporter pNF-κB Luc and 2 ng of internal control phRL-Tk. After 36 h, cells were incubated with 100 μg/ml poly (I:C) or endotoxin-free E. coli DNA for 6 h. Measurements were made with the Dual Luciferase Assay System (Promega). Poly (I:C) increased TLR3 mediated NF-κB mediated luciferase activity (gene expression) 6 fold; dsDNA had no effect. Further support came from electrophoretic mobility shift analyses (EMSA). When FRTL-5 thyrocytes were incubated with 100 μg/ml poly (I:C), IL-1β, TNF-α or TPA, cells lysed after 1 h, and nuclear translocation of NF-κB measured. The poly (I:C) induced p50/p65 complex formation as measured by the presence of a specific new protein/DNA complex and its inhibition by anti-p50 and p65 antibodies, but not by anti-p52, c-rel and Rel B antibodies; the complex was also supershifted by anti-p50. […] Additionally, when FRTL-5 cells were co-transfected with pCMV-BD-Elk 1 and pFR-luc, then incubated with 100 μg/ml poly (I:C) or IL-1β for 6 hrs, ELK1 transactivation was increased 2-fold by both Poly (I:C) and IL-1β when measured with the Dual Luciferase Assay System (Promega). NF-κB/MAP Kinase signals evoked by TLR3 binding dsRNA are only one portion of TLR3 functional expression.
Cells were co-transfected with ISRE-Luc and pRLTk-Int and then treated without (none) or with Poly I:C (100 μg/ml), LPS (100 ng/ml), IL-1β (10 ng/ml) TNF-α (25 ng/ml), IFN-β (100 U/ml) or IFN-γ (1000 U/ml) in the presence of DMSO (−) or C10 for 6 hours. Data were obtained using the Dual Luciferase Assay system. The effect on the ISRE element is not duplicated by an NF-κB reporter plasmid despite the similarity of the two elements: ([…])5 (SEQ ID NO:3) vs. ([…])5 (SEQ ID NO:4), respectively. Data are representative of multiple experiments.
Plasmids for Reporter Gene Assays. Human IRF-3 was amplified from human cDNA and cloned into pCR 2.1 by the TOPO/TA (Invitrogen, Carlsbad, Calif.) cloning method, and then sequenced. IRF-3 was then excised by EcoRI digestion and subcloned into pCMV-BD (Stratagene, La Jolla, Calif.) for use in transactivation assays. To construct IFN-β-luc the human IFN-β promoter sequence was amplified from human genomic DNA (Clontech, Palo Alto, Calif.)) using Ex Taq™ Polymerase (Takara, Madison, Wis.). The PCR fragment contained human IFN-β promoter sequence from −125 to +34 relative to the transcription start site (+1) and incorporated KpnI and XhoI restriction sites at the 5′ and 3′ ends, respectively. The primers were as follows: hIFN-β (−125) KpnI (5′-[…]-3′) (SEQ ID NO:9) and hIFN-β (+34) XhoI (5′-[…]-3′). (SEQ ID NO: 10) The fragment was digested with KpnI and XhoI then ligated into a similarly digested pGL3 Basic (Promega, Madison, Wis.) vector. The human MyD88 wild and dominant negative expression vectors were kindly donated by Dr. P. E. Auron. pFR-luc (5×Gal4 DNA binding domains and minimal TATA box), ISRE-Luc, NF-κB-luc and the Elk1 trans-Reporting System were purchased from Stratagene. pRL TK-Int was purchased from Promega.
Transient Expression Analysis. A DEAE procedure was used to transfect promoter-luciferase gene constructs and expression plasmids into FRTL-5 cells. Briefly, FRTL-5 cells were grown in 24-well plates to about 70% confluence, washed with 0.5 ml of serum-free culture medium (6H0 medium), then exposed to 125 μl of premade plasmid-DEAE mixture per well for 15 min at room temperature. The plasmid-DEAE mixture was prepared by incubating 100 ng of plasmid DNA, unless otherwise noted in individual experiments, with 3.125 μl of DEAE-Dextran (10 mg/ml) (Promega, Madison Wis.). FRTL-5 cells were incubated with this mixture for 2 hr at 37° C. in a CO2 incubator, before 2 ml of 6H5 medium was added. […]

[3] = tested on: ERK1/2 MAPK, ELK1; experiment: ERK1/2 MAPK phosphorylation and Elk1 transactivation in FRTL-5 thyrocytes; assay type: cell-based, rat; details: FRTL-5, pCMV-BD-Elk 1 and pFR-luc, 6 hrs
Experimental: as §1, with “NF-κB/MAP Kinase signals evoked by TLR3 binding dsRNA are only one portion of TLR3 functional expression.” left out

[4] = tested on: C57BL/6J mice; experiment: LPS-induced endotoxic shock in C57BL/6J mice: survival and signs of shock; assay type: in vivo, mouse; details: for Signs of shock at 12 hours, % of Animals: LPS-challenged mice
[5] = tested on: FRTL-5 cells; experiment: Effect of 2-aminopurine (PKR inhibitor) in dsRNA-transfected FRTL-5 cells; assay type: cell-based, rat; details: FRTL-5, 10 mM 2-AP
Experimental: FIG. 2. […] After total RNA purification, 20 μg of total RNA were analyzed with indicated radiolabeled cDNA probes. […] Cells were transfected Lipofectamine 2000 alone (L) or with the indicated amount of Poly (I:C) (RNA) or endotoxin-free E. coli DNA. After 12 and 24 hours, 20 μg of total RNA was analyzed with the indicated radiolabeled cDNA probes. […] In (C), the effect of 2-aminopurine (a PKR inhibitor) on transfected dsRNA-induced TLR3 mRNA levels was measured. Again cells were transfected with Lipofectamine 2000 alone or Lipofectamine with the indicated amount of Poly (I:C) or endotoxin-free E. coli DNA in the presence or absence of 10 mM 2-aminopurine. After the indicated incubation time, cells were harvested and 20 μg of total RNA was analyzed with the indicated radiolabeled cDNA probes. […] Data are representative of multiple experiments. In sum, dsRNA transfection is needed to increase gene expression of signals implicated in autoimmune-inflammatory diseases such as MHC genes and high levels of Type I interferons, not simply activation of TLR by incubating thyrocytes with dsRNA by dsRNA binding to TLR3 receptors. Moreover, despite increased PKR, the critical signal involved in TLR3/Type I IFN signaling by dsRNA transfection is not PKR mediated. […]

[6] = LPS 20 mg/kg i/p, drug i/p 30 min before LPS, 8 mice per group
[7] = challenged with LPS first, treated after 12 hours when shock had appeared

“IFN-γ: a Type II IFN, from Biosource International” was tested, and the “GAPDH mRNA, % of Control at 0 Time (±15%)” value (shortened to “GAPDH mRNA, % of Control”) ([1]; 1 hr) was 100 % of Control at 0 Time, the “IP-10 mRNA, % of Control at 0 Time (±15%)” value (from here on “IP-10 mRNA, % of Control”) ([1]; 1 hr) was 100 % of Control at 0 Time and the “MHC Class I mRNA, % of Control at 0 Time (±15%)” value (“MHC Class I mRNA, % of Control” for short) ([1]; 1 hr) was 100 % of Control at 0 Time. For the same compound, the “PKR mRNA, % of Control at 0 Time (±15%)” value ([1]; 1 hr) was 100 % of Control at 0 Time, the “TLR3 mRNA, % of Control at 0 Time (±15%)” value ([1]; 1 hr) was 100 % of Control at 0 Time and the “GAPDH mRNA, % of Control” value ([1]; 3 hr) was 100 % of Control at 0 Time. The “IP-10 mRNA, % of Control” value ([1]; 3 hr) was 100 % of Control at 0 Time, the “MHC Class I mRNA, % of Control” value ([1]; 3 hr) was 100 % of Control at 0 Time and the “PKR mRNA, % of Control at 0 Time (±15%)” value ([1]; 3 hr) was 100 % of Control at 0 Time. The “TLR3 mRNA, % of Control at 0 Time (±15%)” value ([1]; 3 hr) was 100 % of Control at 0 Time, the “GAPDH mRNA, % of Control” value ([1]; 6 hr) was 100 % of Control at 0 Time and the “IP-10 mRNA, % of Control” value ([1]; 6 hr) was 100 % of Control at 0 Time. For the same compound, the “MHC Class I mRNA, % of Control” value ([1]; 6 hr) was 100 % of Control at 0 Time, the “PKR mRNA, % of Control at 0 Time (±15%)” value ([1]; 6 hr) was 100 % of Control at 0 Time and the “TLR3 mRNA, % of Control at 0 Time (±15%)” value ([1]; 6 hr) was 100 % of Control at 0 Time. The “GAPDH mRNA, % of Control” value ([1]; 12 hr) was 100 % of Control at 0 Time, the “IP-10 mRNA, % of Control” value ([1]; 12 hr) was 100 % of Control at 0 Time and the “MHC Class I mRNA, % of Control” value ([1]; 12 hr) was 100 % of Control at 0 Time. For the same compound, the “PKR mRNA, % of Control at 0 Time (±15%)” value ([1]; 12 hr) was 100 % of Control at 0 Time and the “TLR3 mRNA, % of Control at 0 Time (±15%)” value ([1]; 12 hr) was 100 % of Control at 0 Time.
For Poly (I:C) [reference compound], the “increase of NF-κB mediated luciferase activity” value [2] was 6 fold and the “increase of ELK1 transactivation” value [3] was 2 fold.
For `C[C@]12C=CC(=O)C=C1CC[C@@H]1[C@@H]2[C@@H](O)C[C@@]2(C)[C@H]1CC[C@]2(O)C(=O)CO` [prednisolone], the “Number of surviving mice, 1 week” value [4, 6] was 0, the “Number of surviving mice, 6 hrs” value [4, 6] was 8 and the “Number of surviving mice, 12 hrs” value [4, 6] was 8. The “Number of surviving mice, 18 hrs” value [4, 6] was 3, the “Number of surviving mice, 36 hrs” value [4, 6] was 0 and the “Signs of shock at 12 hours, % of Animals” value [4] was 100 % of Animals. For the same compound, the “Number of surviving mice, 1 week” value [4, 7] was 0, the “Number of surviving mice, 18 hrs” value [4, 7] was 1 and the “Number of surviving mice, 36 hrs” value [4, 7] was 0.
`CNC[C@H](O)[C@@H](O)[C@H](O)[C@H](O)CO.Cc1c(Nc2ncccc2C(=O)O)cccc1C(F)(F)F` [flunixin of meglumine] was tested, and the “Number of surviving mice, 1 week” value [4, 6] was 0, the “Number of surviving mice, 6 hrs” value [4, 6] was 8 and the “Number of surviving mice, 12 hrs” value [4, 6] was 8. The “Number of surviving mice, 18 hrs” value [4, 6] was 4, the “Number of surviving mice, 36 hrs” value [4, 6] was 0 and the “Signs of shock at 12 hours, % of Animals” value [4] was 100 % of Animals. The “Number of surviving mice, 1 week” value [4, 7] was 0, the “Number of surviving mice, 18 hrs” value [4, 7] was 0 and the “Number of surviving mice, 36 hrs” value [4, 7] was 0.
In the case of “IL-1β: cytokine used as positive control”, the “increase of ELK1 transactivation” value [3] was 2 fold.
`Nc1ncc2[nH]cnc2n1` [Compound 2-AP, 2-aminopurine] was tested, and the “dsRNA-transfection-increased NF-κB p65/p50 complex formation (EMSA)” value [5] was “strongly inhibited” and the “dsRNA-transfection-induced increase in IFN-β mRNA levels” value [5] was “did not inhibit”.
